For the assay, the target named is Delta-5-Desaturase (D5D) (Homo sapiens (Human), UniProt O60427). Briefly: In vitro measurement of Delta-5-Desaturase inhibitory activity using DGLA-CoA and Arachidonyl-CoA mass spectrometric assays. Type of assay: biochemical. Conditions: membrane preparations of D5D-overexpressing HEK293 6E cells; averaged over at least two independent runs. The method, boiled down: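 Membranes from D5D-overexpressing HEK293 6E cells (10 μg/mL final) in Tris pH 7.5 with MgCl2, octyl glucoside and TCEP were mixed 1:1 with substrate solution (0.01 mM DGLA, 0.25 mM NADH, 0.25 mM ATP, 0.05 mM CoA) for 1 h at ambient temperature. RapidFire SPE-MS/MS MRM; IC50 by 4-parameter fit, ≥2 runs.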
Delta-5-Desaturase (D5D), sequence (O60427 whole entry, species assumed): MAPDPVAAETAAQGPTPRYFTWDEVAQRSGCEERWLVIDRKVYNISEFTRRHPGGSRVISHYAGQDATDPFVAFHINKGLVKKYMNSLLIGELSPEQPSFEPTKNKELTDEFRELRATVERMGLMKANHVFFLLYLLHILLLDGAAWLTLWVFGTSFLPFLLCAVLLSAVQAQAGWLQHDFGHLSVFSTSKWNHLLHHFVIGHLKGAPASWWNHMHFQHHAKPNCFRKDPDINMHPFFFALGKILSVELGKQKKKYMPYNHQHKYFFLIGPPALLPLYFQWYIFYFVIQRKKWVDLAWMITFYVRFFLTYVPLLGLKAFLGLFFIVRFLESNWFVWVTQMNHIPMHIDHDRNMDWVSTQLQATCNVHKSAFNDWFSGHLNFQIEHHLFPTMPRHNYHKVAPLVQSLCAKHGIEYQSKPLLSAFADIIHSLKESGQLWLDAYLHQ

By IC50 is commonly meant the point on the concentration scale where inhibition reaches its midpoint. Low values mean greater potency, high ones weaker potency. On to `O=c1c(-c2ccc(OCC(F)(F)F)cc2)c(C(F)(F)F)nc2cc(C3CNC3)ccn12` [Example 28, 8-(3-Azetidinyl)-3-(4-(2,2,2-trifluoroethoxy)phenyl)-2-(trifluoromethyl)-4H-pyrido[1,2-a]pyrimidin-4-one], for which the concentration for half-maximal inhibition (IC50) stood at 2940 nM. The result for `COc1ccn2c(=O)c(-c3ccn(CC(F)(F)C(F)(F)F)n3)c(C(F)(F)F)nc2c1` [Example 39-1, 8-Methoxy-3-[1-(2,2,3,3,3-pentafluoropropyl)-1H-pyrazol-3-yl]-2-(trifluoromethyl)-4H-pyrido[1,2-a]pyrimidin-4-one] reads 85 nM; that for `C[C@H](O)c1ccn2c(=O)c(-c3ccc(OCC(F)(F)F)cc3)c(C(F)(F)F)nc2c1` [Example 30-1, 8-((1S)-1-hydroxyethyl)-3-(4-(2,2,2-trifluoroethoxy)phenyl)-2-(trifluoromethyl)-4H-pyrido[1,2-a]pyrimidin-4-one], 74.2 nM. Take `COc1cn2c(=O)c(-c3cnn(CC(F)(F)C(F)(F)F)c3)c(C(F)(F)F)nc2cn1` [Example 39-37, 7-methoxy-3-[1-(2,2,3,3,3-pentafluoropropyl)-1H-pyrazol-4-yl]-2-(trifluoromethyl)-4H-pyrazino[1,2-a]pyrimidin-4-one]: the IC50 is 61 nM. `COc1ccn2c(=O)c(-c3cc(-c4ccccc4)no3)c(C(F)(F)F)nc2c1` [Example 1-5, 8-methoxy-3-(3-phenyl-1,2-oxazol-5-yl)-2-(trifluoromethyl)-4H-pyrido[1,2-a]pyrimidin-4-one] gave an IC50 of 46 nM. Molecule `Cc1nccn2c(=O)c(-c3cnn(CC(F)(F)C(F)(F)F)c3)c(C(F)(F)F)nc12` [Example 39-41, 9-methyl-3-[1-(2,2,3,3,3-pentafluoropropyl)-1H-pyrazol-4-yl]-2-(trifluoromethyl)-4H-pyrazino[1,2-a]pyrimidin-4-one] yielded an IC50 of 65.1 nM. This IC50 and that of the molecule before are within 1.5-fold of each other.

For the molecule `COc1ccn2c(=O)c(-c3ccc(O[C@H](C)C#N)cc3)c(C(F)(F)F)nc2c1` [Example 8-8, (2R)-2-(4-(8-methoxy-4-oxo-2-(trifluoromethyl)-4H-pyrido[1,2-a]pyrimidin-3-yl)phenoxy)propanenitrile], the IC50 was determined as 566 nM. On to `COc1ccn2c(=O)c(-c3ccc(OCC(F)(F)F)cc3C(F)(F)F)c(C(F)(F)F)nc2c1` [Example 8-2, 8-methoxy-3-(4-(2,2,2-trifluoroethoxy)-2-(trifluoromethyl)phenyl)-2-(trifluoromethyl)-4H-pyrido[1,2-a]pyrimidin-4-one], for which the 50% inhibitory concentration (IC50) was found to be 605 nM. `CSCOc1ccn2c(=O)c(-c3ccc(OCC(F)(F)F)cc3)c(C(F)(F)F)nc2c1` [Example 17-1, 8-((Methylsulfanyl)methoxy)-3-(4-(2,2,2-trifluoroethoxy)phenyl)-2-(trifluoromethyl)-4H-pyrido[1,2-a]pyrimidin-4-one]: the IC50 is 317 nM. `COc1cnn2c(=O)c(-c3cnn(CC4CC(F)(F)C4)c3)c(C(F)(F)F)nc2c1` [Example 39-55, 3-{1-[(3,3-difluorocyclobutyl)methyl)-1H-pyrazol-4-yl}-8-methoxy-2-(trifluoromethyl)-4H-pyrimido[1,2-b]pyridazin-4-one] returned a half-inhibitory concentration (IC50) of 748 nM. The result for `COc1ccn2c(=O)c(-c3ccc(OC(F)F)cc3)c(C(F)(F)F)nc2c1` [Example 1-54, 3-(4-(difluoromethoxy)phenyl)-8-methoxy-2-(trifluoromethyl)-4H-pyrido[1,2-a]pyrimidin-4-one] reads 6.6 nM.

Turning to `CCOc1nc2cc(OC)ccn2c(=O)c1-c1cnn(CC(F)(F)C(F)(F)F)c1` [Example 41-4, 2-ethoxy-8-methoxy-3-[1-(2,2,3,3,3-pentafluoropropyl)-1H-pyrazol-4-yl]-4H-pyrido[1,2-a]pyrimidin-4-one], the IC50 turned out to be 22.3 nM. Against the preceding molecule, the IC50 is about 3.4-fold higher. Molecule `COc1ccn2c(=O)c(-c3cnn(-c4ccc(F)cc4)c3)c(C(F)(F)F)nc2c1` [Example 1-17, 3-(1-(4-fluorophenyl)-1H-pyrazol-4-yl)-8-methoxy-2-(trifluoromethyl)-4H-pyrido[1,2-a]pyrimidin-4-one] registered a half-inhibitory concentration (IC50) of 13.9 nM.

These data come from patent US12473289B2, “Heterocyclic compounds as delta-5 desaturase inhibitors and methods of use” (Amgen Inc., priority 2019, dated 2025).
